{"source": "patent US20150157588A1", "about": "“Pharmaceutical Composition Comprising Amino-Phenyl-Acetic Acid Octadec-(Z)-9-enyl Ester and Use Thereof for Treating Tumors” (Yeda Research and Development Co., Ltd., priority 2012, published 2015)", "system": "anti-CD3-activated T cells", "experiment": "Microarray gene expression, T cells activated by anti-CD3 antibody", "format": "cell-based, human", "details": "anti-CD3-activated T cells; for Fold change COL6A3: 201438_at; for Fold change CTSL: 202087_s_at; for Fold change IGF2 /// INS-IGF2: 202409_at; for Fold change IGFBP2: 202718_at; for Fold change SERPINA1: 202833_s_at; for Fold change S100A8: 202917_s_at; for Fold change MET: 203510_at; for Fold change MMP9: 203936_s_at; for Fold change LOC645619 /// LOC731007: 204347_at; for Fold change AK3L1: 204348_s_at; for Fold change SLC7A7: 204588_s_at; for Fold change SERPINB2: 204614_at; for Fold change TTK: 204822_at; for Fold change GNG4: 205184_at; for Fold change ADAMDEC1: 206134_at; for Fold change PLA2G7: 206214_at; for Fold change HCK: 208018_s_at", "experimental": "CD3 positive T cells were extracted from a healthy donor according to a standard protocol, and seeded in T cell medium including RPMI, 10% fetal calf serum, sodium pyruvate, L-Glutamine, and Penicillin/Streptomycin. Following an overnight incubation with medium, the cells were treated by incubating for 2 hours at 37° C. with amino-phenyl-acetic acid octadec-(Z)-9-enyl ester at a concentration of 10 micrograms/ml in a final volume of 10 ml in T-cell medium with or without 0.05% ethanol. After incubation, half the cells from each treatment were centrifuged and 2 ml of Tri-reagent (Sigma) were added to the pellet. The other half of the cells from each treatment were transferred to anti-CD3 antibody coated 24 well plates for an overnight incubation at 37° C. Coating plates with an anti-CD3 antibody was carried out by incubating with 2 micrograms/ml of OKT3 anti-CD3 antibody overnight at 4° C., washing three times with PBS and blocking with filtered 1% Bovine Serum Albumin for 1 hour. After activation with anti-CD3 antibody, cells were centrifuged and 2 ml of Tri-reagent were added to the pellet.\nRNA was extracted from unstimulated cells and from cells activated with anti-CD3 according to standard protocols and used for hybridization with a Human Genome U133A 2.0 (Affymetrix, Catalogue number 900468), according to the manufacturer's instructions. The results of the hybridization were read by a GeneChip scanner 3000 (Affymetrix) and analyzed by QuantArray (GSI lumonics).\nThe effects of amino-phenyl-acetic acid octadec-(Z)-9-enyl ester in ethanol solution or in an aqueous vehicle (hereinafter termed “in PBS”) on gene expression in unstimulated T cells and T cells activated by anti-CD3 antibody were compared by microarray analysis.", "key": {"[1]": {"details": "in ethanol solution vs untreated"}}, "data": [{"smiles": "CCCCCCCC/C=C\\CCCCCCCCOC(=O)C(N)c1ccccc1", "note": "(stereo not shown) [amino-phenyl-acetic acid octadec-(Z)-9-enyl ester]", "values": [{"measurement": "Fold change IL1B", "setting": "39402_at, in ethanol solution vs untreated", "value": 2.03}, {"measurement": "Fold change THBS1", "setting": "201109_s_at, in ethanol solution vs untreated", "value": 1.94}, {"measurement": "Fold Change EIF5A", "setting": "201123_s_at, in ethanol solution vs in PBS", "value": "−1.97"}, {"measurement": "Fold change COL6A3", "setting": "in ethanol solution vs in PBS", "value": "−2.16"}, {"measurement": "Fold change COL6A3", "setting": "[1]", "value": "−2.06"}, {"measurement": "Fold change BNIP3", "setting": "201848_s_at, in ethanol solution vs in PBS", "value": "−3.39"}, {"measurement": "Fold change BNIP3", "setting": "201848_s_at, in ethanol solution vs untreated", "value": "−2.99"}, {"measurement": "Fold change BNIP3", "setting": "201849_at, in ethanol solution vs in PBS", "value": "−3.34"}, {"measurement": "Fold change BNIP3", "setting": "201849_at, in ethanol solution vs untreated", "value": "−3.24"}, {"measurement": "Fold change CTSL", "setting": "in ethanol solution vs in PBS", "value": 2.18}, {"measurement": "Fold change CTSL", "setting": "[1]", "value": 2.30}, {"measurement": "Fold change IGF2 /// INS-IGF2", "setting": "in ethanol solution vs in PBS", "value": "−2.42"}, {"measurement": "Fold change IGF2 /// INS-IGF2", "setting": "[1]", "value": "−2.17"}, {"measurement": "Fold change CYP1B1", "setting": "202436_s_at, in ethanol solution vs untreated", "value": 2.02}, {"measurement": "Fold change IGFBP2", "setting": "in ethanol solution vs in PBS", "value": "−6.02"}, {"measurement": "Fold change IGFBP2", "setting": "[1]", "value": "−5.13"}, {"measurement": "Fold change SERPINA1", "setting": "in ethanol solution vs in PBS", "value": 1.97}, {"measurement": "Fold change SERPINA1", "setting": "[1]", "value": 2.12}, {"measurement": "Fold change S100A8", "setting": "in ethanol solution vs in PBS", "value": 2.11}, {"measurement": "Fold change S100A8", "setting": "[1]", "value": 2.24}, {"measurement": "Fold Change GBE1", "setting": "203282_at, in ethanol solution vs in PBS", "value": "−1.92"}, {"measurement": "Fold change LMAN1", "setting": "203294_s_at, in PBS vs untreated", "value": 1.91}, {"measurement": "Fold Change ABCA1", "setting": "203504_s_at, in ethanol solution vs in PBS", "value": "−1.90"}, {"measurement": "Fold change MET", "setting": "in ethanol solution vs in PBS", "value": 2.76}, {"measurement": "Fold change MET", "setting": "[1]", "value": 2.35}, {"measurement": "Fold change DFNA5", "setting": "203695_s_at, in ethanol solution vs untreated", "value": 1.92}, {"measurement": "Fold change MMP9", "setting": "in ethanol solution vs in PBS", "value": 2.67}, {"measurement": "Fold change MMP9", "setting": "[1]", "value": 2.74}, {"measurement": "Fold Change CA12", "setting": "203963_at, in ethanol solution vs in PBS", "value": 2.02}, {"measurement": "Fold Change CA12", "setting": "203963_at, in ethanol solution vs untreated", "value": 1.91}, {"measurement": "Fold Change CDC6", "setting": "203967_at, in ethanol solution vs in PBS", "value": "−2.03"}, {"measurement": "Fold change FCER1G", "setting": "204232_at, in ethanol solution vs untreated", "value": 1.94}, {"measurement": "Fold change LOC645619 /// LOC731007", "setting": "in ethanol solution vs in PBS", "value": "−2.52"}, {"measurement": "Fold change LOC645619 /// LOC731007", "setting": "[1]", "value": "−2.25"}, {"measurement": "Fold change AK3L1", "setting": "in ethanol solution vs in PBS", "value": "−3.93"}, {"measurement": "Fold change AK3L1", "setting": "[1]", "value": "−3.14"}, {"measurement": "Fold change MMP1", "setting": "204475_at, in ethanol solution vs untreated", "value": 2.32}, {"measurement": "Fold Change CA12", "setting": "204508_s_at, in ethanol solution vs in PBS", "value": 2.09}, {"measurement": "Fold change ABCG1", "setting": "204567_s_at, in ethanol solution vs untreated", "value": "−2.12"}, {"measurement": "Fold change SLC7A7", "setting": "in ethanol solution vs in PBS", "value": 2.05}, {"measurement": "Fold change SLC7A7", "setting": "[1]", "value": 2.07}, {"measurement": "Fold change EXO1", "setting": "204603_at, in ethanol solution vs untreated", "value": "−2.25"}, {"measurement": "Fold change SERPINB2", "setting": "in ethanol solution vs in PBS", "value": 2.60}, {"measurement": "Fold change SERPINB2", "setting": "[1]", "value": 3.14}, {"measurement": "Fold change TTK", "setting": "in ethanol solution vs in PBS", "value": "−2.04"}, {"measurement": "Fold change TTK", "setting": "[1]", "value": "−2.40"}, {"measurement": "Fold change DOCK4", "setting": "205003_at, in ethanol solution vs untreated", "value": 2.33}, {"measurement": "Fold change RAD51", "setting": "205024_s_at, in ethanol solution vs untreated", "value": "−2.09"}, {"measurement": "Fold change IL1B", "setting": "205067_at, in ethanol solution vs untreated", "value": 2.03}, {"measurement": "Fold change GNG4", "setting": "in ethanol solution vs in PBS", "value": 2.04}, {"measurement": "Fold change GNG4", "setting": "[1]", "value": 2.23}, {"measurement": "Fold change IL6", "setting": "205207_at, in ethanol solution vs untreated", "value": 1.95}, {"measurement": "Fold change probeset 205296_at", "setting": "205296_at, in ethanol solution vs untreated", "value": "−2.02"}, {"measurement": "Fold Change WDR76", "setting": "205519_at, in ethanol solution vs in PBS", "value": "−2.42"}, {"measurement": "Fold change AQP9", "setting": "205568_at, in ethanol solution vs untreated", "value": 2.27}, {"measurement": "Fold change ZC3H11A", "setting": "205787_x_at, in PBS vs untreated", "value": 1.95}, {"measurement": "Fold change MT3", "setting": "205970_at, in ethanol solution vs untreated", "value": "−2.05"}, {"measurement": "Fold change TNFAIP6", "setting": "206025_s_at, in ethanol solution vs untreated", "value": 1.92}, {"measurement": "Fold change SFRS6", "setting": "206108_s_at, in PBS vs untreated", "value": 2.16}, {"measurement": "Fold change ADAMDEC1", "setting": "in ethanol solution vs in PBS", "value": 2.41}, {"measurement": "Fold change ADAMDEC1", "setting": "[1]", "value": 2.87}, {"measurement": "Fold change PLA2G7", "setting": "in ethanol solution vs in PBS", "value": 2.12}, {"measurement": "Fold change PLA2G7", "setting": "[1]", "value": 3.44}, {"measurement": "Fold change SERPINB7", "setting": "206421_s_at, in ethanol solution vs untreated", "value": 1.99}, {"measurement": "Fold change IL24", "setting": "206569_at, in ethanol solution vs untreated", "value": 1.97}, {"measurement": "Fold change CSF3", "setting": "207442_at, in ethanol solution vs untreated", "value": 2.14}, {"measurement": "Fold Change P4HA1", "setting": "207543_s_at, in ethanol solution vs in PBS", "value": "−2.20"}, {"measurement": "Fold change HCK", "setting": "in ethanol solution vs in PBS", "value": 1.93}, {"measurement": "Fold change HCK", "setting": "[1]", "value": 2.14}, {"measurement": "Fold change CASP2", "setting": "208050_s_at, in PBS vs untreated", "value": 2.04}]}]}
